Source: publication PMC8318231, “Rate-of-Kill (RoK) assays to triage large compound sets for Chagas disease drug discovery: Application to GSK Chagas Box” (PLoS Neglected Tropical Diseases, 2021)

Assays:
[1] = system: T. cruzi Tulahuen trypomastigotes; assay: T. cruzi trypomastigote assay (Cell Titer-Glo viability, ATP luminescence); format: cell-based, Trypanosoma cruzi; conditions: for Trypomastigotes pIC50 48 hours: 48 hours incubation; for Trypomastigotes pIC50 48 hours / Trypomastigotes pIC50 72 hours: pIC50 = -log10 IC50 in molar units; for Trypomastigotes pIC50 72 hours: 72 hours incubation; for 72 pIC50 (trypomastigotes, raw data of Fig 1D): 72 hours, plotted values, censored values given without sign; for 48 pIC50 / 72 pIC50: trypomastigote assay; for 48 pIC50: 48 h; for 72 pIC50: 72 h
Summary of the method: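 Tulahuen trypomastigotes from infected LLC-MK2 culture supernatants (days 5–8) plated at 5 × 10^4 per well in DMEM/2% FBS with compound at 5 μM single-shot final or in dose response. Viability by CellTiter-Glo ATP luminescence after 10 min at room temperature, normalised to no-cell (100%) and DMSO (0%) controls.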

[2] = system: T. cruzi intracellular amastigotes in H9c2 cells; assay: Rate-of-Kill (RoK) high-content imaging assay, amastigotes per cell (AM/CELL) and curve descriptors; format: cell-based, Trypanosoma cruzi; design: key to ME_24h / ME_48h / ME_72h: % reduction in parasite burden (cidal response); t50pct_MCC50 / t50pct_Cmax: unit not given here; conditions: for ME_24h: 24h; for ME_48h: 48h; for ME_72h: 72h; for AM/CELL NORM: sheet figure 4 A; for t50%_Cmax / tlag_Cmax / t50pct_Cmax: at Cmax; for ME_24h (%): maximum effect at 24 h; for ME_24h (%) / ME_48h (%) / ME_72h (%): RoK assay; for ME_48h (%): maximum effect at 48 h; for ME_72h (%): maximum effect at 72 h; for ME 24h (maximum effect at 24 hours, intracellular amastigotes): maximum percentage of parasite burden reduction reached by any concentration
Summary of the method: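 H9c2 cardiomyocytes infected with T. cruzi trypomastigotes (MOI 8, 18 h), then compounds tested at 5 μM single shot or 11-point 1/3 dilution from 50 μM. DRAQ5-stained nuclei imaged over a time course. Amastigotes per cell normalised to infected cells at 4 h (0%) and non-infected cells (100%).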

Structure (SMILES): O=C(C1CCCCC1)N1CCN(c2nnc(-c3ccccc3)c3ccccc23)CC1 [TCMDC-143511]
- Trypomastigotes pIC50 48 hours [1]: < 4.3
- Trypomastigotes pIC50 72 hours [1]: < 4.3
- 72 pIC50 (trypomastigotes, raw data of Fig 1D) [1]: < 4.3
- 48 pIC50 ([1]; figure 1A): < 4.3
- 72 pIC50 ([1]; figure 1A): < 4.3
- 72 pIC50 ([1]; figure 1B): < 4.3
- ME_24h ([2]; figure 5): -40.3218
- ME_48h ([2]; figure 5): 29.1145
- ME_72h ([2]; figure 5): 87.9479
- MCC50 ([2]; RoK curve descriptor): 5.6 µM
- MCCE ([2]; RoK curve descriptor): 1.9 µM
- AM/CELL NORM ([2]; Time 4): -0.05415
- AM/CELL NORM ([2]; Time 24): -40.3218
- AM/CELL NORM ([2]; Time 48): 2.791
- AM/CELL NORM ([2]; Time 72): 87.9479
- t50%_Cmax [2]: 72.0 h
- tlag_Cmax [2]: 24.0 h
- t50pct_Cmax ([2]; figure 5): 72
- tlag_Cmax ([2]; figure 5): 24
- t50%_MCC50 ([2]; at MCC50): 72.0 h
- tlag_MCC50 ([2]; at MCC50): 24.0 h
- t50pct_MCC50 ([2]; at MCC50, figure 5): 72
- tlag_MCC50 ([2]; at MCC50, figure 5): 24
- MCCE ([2]; figure 5): 1.852
- MCC50 ([2]; figure 5, in µM): 5.556
- ME_24h (%) [2]: -40.3%
- ME_48h (%) [2]: 29.1%
- ME_72h (%) [2]: 88.0%
- ME 24h (maximum effect at 24 hours, intracellular amastigotes) [2]: -40.3218%

Structure (SMILES): CN(C(=O)Nc1ccc2c(c1)CCN(C1CCC1)CC2)c1ccc(C#N)cc1.Cl [TCMDC-143526]
- Trypomastigotes pIC50 48 hours [1]: < 4.3
- Trypomastigotes pIC50 72 hours [1]: < 4.3
- 72 pIC50 (trypomastigotes, raw data of Fig 1D) [1]: < 4.3
- 48 pIC50 ([1]; figure 1A): < 4.3
- 72 pIC50 ([1]; figure 1A): < 4.3
- 72 pIC50 ([1]; figure 1B): < 4.3
- ME_24h ([2]; figure 5): -107.476
- ME_48h ([2]; figure 5): -30.6533
- ME_72h ([2]; figure 5): 30.9234
- MCCE ([2]; RoK curve descriptor): 1.9 µM
- AM/CELL NORM ([2]; Time 4): 4.08
- AM/CELL NORM ([2]; Time 24): -107.476
- AM/CELL NORM ([2]; Time 48): -30.6533
- AM/CELL NORM ([2]; Time 72): 30.9234
- tlag_Cmax [2]: 24.0 h
- t50pct_Cmax ([2]; figure 5): 72
- tlag_Cmax ([2]; figure 5): 24
- t50pct_MCC50 ([2]; at MCC50, figure 5): 72
- tlag_MCC50 ([2]; at MCC50, figure 5): 72
- MCC50 ([2]; figure 5): 50 µM
- MCCE ([2]; figure 5): 1.852
- ME_24h (%) [2]: -107.5%
- ME_48h (%) [2]: -30.7%
- ME_72h (%) [2]: 30.9%
- ME 24h (maximum effect at 24 hours, intracellular amastigotes) [2]: -107.476%

Structure (SMILES): CC(CNS(=O)(=O)c1ccc(OC(F)F)cc1)c1ccc(NC(=O)c2ccncc2)cc1 (stereo not shown) [TCMDC-143535]
- Trypomastigotes pIC50 48 hours [1]: 4.6
- Trypomastigotes pIC50 72 hours [1]: 4.4
- ME_24h ([2]; figure 5): -92.8433
- ME_48h ([2]; figure 5): -11.1799
- ME_72h ([2]; figure 5): 45.5869
- MCCE ([2]; RoK curve descriptor): 0.2 µM
- AM/CELL NORM ([2]; Time 4): 3.544
- AM/CELL NORM ([2]; Time 24): -92.8433
- AM/CELL NORM ([2]; Time 48): -15.4132
- AM/CELL NORM ([2]; Time 72): 37.7082
- tlag_Cmax [2]: 24.0 h
- t50pct_Cmax ([2]; figure 5): 72
- tlag_Cmax ([2]; figure 5): 24
- t50pct_MCC50 ([2]; at MCC50, figure 5): 72
- tlag_MCC50 ([2]; at MCC50, figure 5): 72
- MCC50 ([2]; figure 5): 50 µM
- MCCE ([2]; figure 5): 0.2058
- ME_24h (%) [2]: -92.8%
- ME_48h (%) [2]: -11.2%
- ME_72h (%) [2]: 45.6%
- ME 24h (maximum effect at 24 hours, intracellular amastigotes) [2]: -92.8433%

Structure (SMILES): Cn1cc(CN2CCN(c3ccc4c(c3)CCN(C(=O)[C@H]3C[C@@H]3c3ccccc3)CC4)CC2)cn1 [TCMDC-143537]
- Trypomastigotes pIC50 48 hours [1]: 5
- Trypomastigotes pIC50 72 hours [1]: 4.9
- ME_24h ([2]; figure 5): 33.1689
- ME_48h ([2]; figure 5): 35.5175
- ME_72h ([2]; figure 5): 52.5957
- MCC50 ([2]; RoK curve descriptor): 16.7 µM
- MCCE ([2]; RoK curve descriptor): 0.6 µM
- AM/CELL NORM ([2]; Time 4): 1.751
- AM/CELL NORM ([2]; Time 24): 33.1689
- AM/CELL NORM ([2]; Time 48): 30.0543
- AM/CELL NORM ([2]; Time 72): 50.1418
- t50%_Cmax [2]: 72.0 h
- tlag_Cmax [2]: 4.0 h
- t50pct_Cmax ([2]; figure 5): 72
- tlag_Cmax ([2]; figure 5): 4
- t50%_MCC50 ([2]; at MCC50): 72.0 h
- tlag_MCC50 ([2]; at MCC50): 24.0 h
- t50pct_MCC50 ([2]; at MCC50, figure 5): 72
- tlag_MCC50 ([2]; at MCC50, figure 5): 24
- MCCE ([2]; figure 5): 0.6173
- MCC50 ([2]; figure 5, in µM): 16.6667
- ME_24h (%) [2]: 33.2%
- ME_48h (%) [2]: 35.5%
- ME_72h (%) [2]: 52.6%
- ME 24h (maximum effect at 24 hours, intracellular amastigotes) [2]: 33.1689%

Structure (SMILES): O=C(CN(c1cccc(C(F)(F)F)c1)S(=O)(=O)c1ccc(Cl)cc1)NCc1ccc(F)c(F)c1 [TCMDC-143548]
- Trypomastigotes pIC50 48 hours [1]: 5
- Trypomastigotes pIC50 72 hours [1]: 4.9
- ME_24h ([2]; figure 5): -13.6646
- ME_48h ([2]; figure 5): 17.5808
- ME_72h ([2]; figure 5): 36.7488
- MCCE ([2]; RoK curve descriptor): 0.6 µM
- AM/CELL NORM ([2]; Time 4): 27.6101
- AM/CELL NORM ([2]; Time 24): -54.8458
- AM/CELL NORM ([2]; Time 48): -14.5763
- AM/CELL NORM ([2]; Time 72): 13.9259
- tlag_Cmax [2]: 24.0 h
- t50pct_Cmax ([2]; figure 5): 72
- tlag_Cmax ([2]; figure 5): 24
- t50pct_MCC50 ([2]; at MCC50, figure 5): 72
- tlag_MCC50 ([2]; at MCC50, figure 5): 72
- MCC50 ([2]; figure 5): 50 µM
- MCCE ([2]; figure 5): 0.6173
- ME_24h (%) [2]: -13.7%
- ME_48h (%) [2]: 17.6%
- ME_72h (%) [2]: 36.8%
- ME 24h (maximum effect at 24 hours, intracellular amastigotes) [2]: -13.6646%
